Assay type in all cases: in vivo, rhesus monkeys
In data set [1] the target is T1, LPA1 (Macaca mulatta, UniProt H9EN64).
T1 construct: from tissue; host or cells: lung of living anaesthetised rhesus monkeys (in vivo PET)
In words: PET saturation study of [11C]-BMT-136088 in lung (bolus plus infusion, VT by MA1/EA). Conditions: for ED50: rhesus monkey. Here is the method:
(§1) This study was divided in two parts: First, the test-retest variability of [^11C]-BMT-136088 binding in a within-day protocol. Second, a saturation study was performed to evaluate the fraction of specific and non-specific binding for the radiotracer [^11C]-BMT-136088, the in vivo equilibrium dissociation constant KD, and the radiopharmaceutical tracer-dose limit (to achieve less than 5% self-occupancy).
In the saturation study, each animal was scanned twice a day, with varying mass of [^11C]-BMT-136088, from tracer dose to near-saturating doses. The interval between the two scans was the same as in the blocking study and test-retest study. For the first scans, tracer doses were used in 3 out of 4 study days. On the fourth day, the first scan dose was not performed at tracer dose, but the mass of the first dose scan was substantially lower than the second dose to minimize the influence of the first injection on the second scan data.
(§2) Two rhesus monkeys were included in the blocking, test-retest, and saturation studies: one male, one female; age=4.8±0.8 y; weight=8.6±0.4 kg. Studies in the same animal were separated by at least 2 weeks to allow the animal to recover from anesthesia and other effects. Four rhesus monkeys (2M, 2F) were included in the dosimetry study.
(§3) Following a low-dose, CT scan used for attenuation correction and to delineate the lung regions of interest, [^11C]-BMT-136088 was injected using a computer-control pump with a bolus plus infusion protocol, with an initial 1-min bolus and a ˜119-min infusion. The volume injected during the initial bolus represented 100 min (Kbol) worth of infusion in the blocking and test-retest study, and 300 min worth of infusion in the saturation study.
(§4) Beginning at the start of each injection, a 120-minute time-of-flight list-mode acquisition on the mCT PET/CT scanner (Siemens Medical Solutions USA, Inc.) was performed. Dynamic PET scan data were reconstructed with corrections for point-spread function, attenuation, normalization, scatter, randoms, and dead time using a 3D OP-OSEM TOF algorithm. PET images were reconstructed into 33 frames, with the following frame timing: 6×30 sec; 3×1 min; 2×2 min; 22×5 min. Each frame contained 400×400×111 (x,y,z) voxels (2.04×2.04×2.0 mm).
The lungs were semi-automatically delineated using CT images collected before each PET scan. • First, the lungs were segmented based on the CT image values in Hounsfield scale (−1000<HU<−200), using a region growing algorithm and seeds manually placed at the center of the lungs; • The trachea, and occasionally the air in the stomach were manually excluded from the segmentation results; • The segmented lung ROIs were divided into right and left ROIs by manually selecting a plane separating the left and right side of the animal (animals were lying in supine position, but this plane was not always perfectly vertical); • The right and left ROIs were further divided into three smaller ROIs: lower lung, mid lung, and upper lung. The upper lung was defined as the part of the lung above the heart; the lower lung was defined as the part of the lung that is less than 5 slices (˜1 cm) above the topmost axial slice where the top of the liver can be seen.
The lung time-activity curves (TACs) were computed for each ROI and expressed in kBq/cm^3. The lung ROI contains lung tissue, blood, and air. In particular, the lung density may change from scan to scan due to (slight) changes in animal positioning, which can change the left-right location of the heart and change which lung tends to be compressed by the heart. Therefore an estimate of the density of lung ROIs was estimated to convert the TAC units from kBq/cm^3 to kBq/g, as follows. The CT images were converted from Hounsfield scale to linear attenuation values (in cm^−1) for 511 KeV photons. These attenuation values were assumed to be linearly proportional to mass for soft tissue (e.g., lung and heart) and the heart density was assumed to be 1 g/cm^3. […]

The target of data set [2] is T1, LPA1. Put plainly: PET blocking study of [11C]-BMT-136088 with BMS-986020. The note with it: from BPND 1.1±0.1. Here is the method: For the blocking data reanalyzed here, each animal was scanned twice during the administration of [^11C]-BMT-136088, using a bolus plus infusion (B+I) protocol: at baseline first, then during the administration of the blocking drug, BMS-986020, also using a bolus plus infusion protocol.
In the blocking study, BMS-986020 was administered i.v. using a 10-min bolus ([…]) followed by a ˜230 min infusion (0.25 mg/kg/hr) for a total dose of 1.224±0.015 mg/kg.
as §2, §3, §4
Blood samples for PK for each blockade study session were obtained at −1, 60, 90, 120, 150, 210, 240 and 270 minutes after the start of BMS-986020 bolus plus infusion. Red cells were precipitated at 3200 rpm for 10 minutes at 10° C.; the plasma was divided into two aliquots and frozen at −80° C. until shipped for analysis. […]

For data set [3], the target named is T1, LPA1. In words: PET test-retest study of [11C]-BMT-136088 binding. Here is the method:
as §1
In the test-retest study, each animal was scanned twice per day, with the same interval between the two scans as in the blocking study, to measure the variability of [^11C]-BMT-136088 binding parameter and assess if there was a systematic difference in binding parameters between the two scan times (for example due to the prolonged anesthesia). The study was performed in the same animals as the blocking study.
as §2, §3
Beginning at the start of each injection, a 120-minute time-of-flight list-mode acquisition on the mCT PET/CT scanner (Siemens Medical Solutions USA, Inc.) was performed. Dynamic PET scan data were reconstructed with corrections for point-spread function, attenuation, normalization, scatter, randoms, and dead time using a 3D OP-OSEM TOF algorithm. PET images were reconstructed into 33 frames, with the following frame timing: 6×30 sec; 3×1 min; 2×2 min; 22×5 min. Each frame contained 400×400×111 (x,y,z) voxels (2.04×2.04×2.0 mm). […]

Data set [4] can be described thus: Plasma concentration and plasma free fraction in saturation study. Here is the method: as §2
Blood samples were also collected for the last three saturation studies at −5, 60, 90 and 120 minutes after the start of [^11C]-BMT-136088 bolus plus infusion with non-tracer doses (n=4). Red cells were precipitated at 3200 rpm for 10 minutes at 10° C.; the plasma was divided into two aliquots and frozen at −80° C. until shipped for analysis. The goal of these measurements was to compare the plasma concentrations estimated from measurements of [^11C]-BMT-136088 and its metabolism using gamma counters and HPLC systems, to that from measurement of unlabeled BMT-136088 using mass spectrometry.

Like-named read-outs stand apart in the source and are kept apart here.

T1 sequence (H9EN64 1-364): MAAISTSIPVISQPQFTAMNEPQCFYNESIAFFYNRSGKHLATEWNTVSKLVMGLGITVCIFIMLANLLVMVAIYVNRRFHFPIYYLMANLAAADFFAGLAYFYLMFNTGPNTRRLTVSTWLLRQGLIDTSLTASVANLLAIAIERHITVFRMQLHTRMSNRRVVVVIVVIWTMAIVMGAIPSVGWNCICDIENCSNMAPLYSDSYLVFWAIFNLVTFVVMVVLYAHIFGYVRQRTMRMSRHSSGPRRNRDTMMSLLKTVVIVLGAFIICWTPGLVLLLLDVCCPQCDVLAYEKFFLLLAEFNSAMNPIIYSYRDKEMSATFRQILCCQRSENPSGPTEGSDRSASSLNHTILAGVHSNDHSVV

For `Cc1noc(-c2ccc(-c3ccc(C4(C(=O)O)CC4)cc3)cc2)c1NC(=O)O[C@H](C)c1cccc([11CH3])c1` [[^11C]-BMT-136088, [11C]-(R)-1-(4′-(3-Methyl-4-(((1-(m-tolyl)ethoxy)carbonyl)amino)isoxazol-5-yl)-[1,1′-biphenyl]-4-yl)cyclopropanecarboxylic acid], the IC50 (as a rule, the concentration at which inhibition is half-maximal) in data set [1] (MA1 and all corrections, VT versus plasma concentration) is 28 ± 12 nM. Further, the “binding potential BPND” value in data set [1] (MA1 with all corrections, lung) is 1.1±0.1. Moreover, the “fraction of tracer in lung (excluding blood) specifically bound to LPA1 sites” value in data set [1] (at equilibrium) is given as “about 50%”. In addition, the Kd (commonly the equilibrium constant for the complex coming apart) in data set [1] (from plasma IC50 and plasma free fraction, read-out: in vivo KD) came out at 0.055 nM. In addition, the ED50 – broadly, the dose at which the effect has come halfway, by size or by number of responders – in data set [1] (MA1 with all corrections, read-out: ED50) was 0.036 ± 0.015 mg/kg; in data set [1] (all ED50 estimates, range over analysis methods, read-out: ED50 estimates (all methods)), 0.036 to 0.056 mg/kg. In data set [1] (to occupy less than 5% of LPA1 sites, based on ED50), the tracer dose limit is 0.0019 mg/kg. Moreover, the “maximum expected blockade effect” value in data set [2] was 52%. Besides, the test-retest variability in data set [3] (EA, density and blood activity corrections, left ROIs mid and upper lung) is given as −2±10%; in data set [3] (EA, density and blood activity corrections, right ROIs mid and upper lung), −1±11%; in data set [3] (MA1, animal A2, left ROIs mid and upper lung), −5%; in data set [3] (MA1, animal A2, right ROIs mid and upper lung) it was −8%. In addition, in data set [4] (both sexes, rhesus monkey, plasma, intravenous, measured during the saturation studies), the free fraction (fraction unbound) (in general, free concentration divided by total concentration) came to 0.002. For the same molecule, in data set [4] (saturation study, linear increase), the “slope of plasma concentration vs injected mass” value is reported as 0.92 nM/(μg/kg).

(Values after patent US9987381B2, “Radioligands for imaging the LPA-1 receptor” (BRISTOL-MYERS SQUIBB COMPANY, priority 2013, dated 2018).)
